From patent US8530512B2, “Broad spectrum gram-positive antimicrobials and anthelmintics with efficacy against drug-resistant strains and Mycobacterium species” (priority 2004, dated 2013)
In brackets after ≈: the same amount, converted by molar mass.

What was measured:
Streptococcus pyogenes = assay: microbe, parasite or virus in culture; type: cell-based; settings: for MIC: Streptococcus pyogenes, per-compound listing, Example 6, read-out: MIC S. pyogenes; for MIC S. pyogenes, G+: Table 3
[1] = test system: Staphylococcus aureus ATCC 29213; assay: microbe, parasite or virus in culture; type: cell-based; settings: for MIC: Staphylococcus aureus, ATCC29213, per-compound listing, Example 6, read-out: MIC S. aureus
[2] = test system: Enterococcus faecium VRE 1; assay: organism not typed; type: cell-based; settings: for MIC E. faecium VRE 1, G+: Table 3; for MIC: read-out: MIC VRE
[3] = test system: Staphylococcus aureus MRSA MC-1; assay: microbe, parasite or virus in culture; type: cell-based; settings: for MIC: Staphylococcus aureus, MRSA, read-out: MIC MRSA
Bacillus cereus = assay: microbe, parasite or virus in culture; type: cell-based; settings: for MIC: Bacillus cereus, per-compound listing, Example 6, read-out: MIC B. cereus; for MIC B. cereus, G+ (anthrax surrogate): Table 3
M. smegmatis = assay: MIC assay; type: cell-based; settings: for MIC: Mycolicibacterium smegmatis, per-compound listing, Example 6, read-out: MIC M. smegmatis
C. elegans L1 larvae = assay: developmental assay; type: in vivo; set-up: key to Developmental score, 1/1600 / Developmental score, 1/800 / Developmental score, 1/400 / Developmental score, 1/200 / Developmental score, 1/100: dead (+++); distressed (++); slightly delayed (+); the same as M9-only untreated wells (−); settings: for Developmental score, 1/100: dilution 1/100; for Developmental score, 1/100 / Developmental score, 1/200 / Developmental score, 1/400 / Developmental score, 1/800 / Developmental score, 1/1600: after four days, Ive 1 ng/μL in each well; for Developmental score, 1/200: dilution 1/200; for Developmental score, 1/400: dilution 1/400; for Developmental score, 1/800: dilution 1/800; for Developmental score, 1/1600: dilution 1/1600
C. elegans = assay: motility assay; type: in vivo; set-up: key to Movement score, 1/1600 / Movement score, 1/800 / Movement score, 1/400 / Movement score, 1/200 / Movement score, 1/100: normal (−); slow (+); very slow (++); not motile/paralyzed (+++); settings: for Movement score, 1/100: dilution 1/100 of stock (10.24 μg/μL; SK-03-92 1.024 μg/μL); for Movement score, 1/100 / Movement score, 1/200 / Movement score, 1/400 / Movement score, 1/800 / Movement score, 1/1600: Ive 1 ng/μL in all wells; for Movement score, 1/200: dilution 1/200 of stock (10.24 μg/μL; SK-03-92 1.024 μg/μL); for Movement score, 1/400: dilution 1/400 of stock (10.24 μg/μL; SK-03-92 1.024 μg/μL); for Movement score, 1/800: dilution 1/800 of stock (10.24 μg/μL; SK-03-92 1.024 μg/μL); for Movement score, 1/1600: dilution 1/1600 of stock (10.24 μg/μL; SK-03-92 1.024 μg/μL), overnight 20° C.; for effect on worms at the lowest concentrations tested: at least triplicate
Mycobacterium chelonae = assay: MIC assay; type: cell-based; settings: Table 6
Mycobacterium avium = assay: MIC assay; type: cell-based; settings: Table 6
[4] = test system: Mycobacterium intracellulare; assay: MIC assay; type: cell-based; settings: Table 6
Mycobacterium fortuitum = assay: MIC assay; type: cell-based; settings: Table 6

| SMILES | MIC (Streptococcus pyogenes) | MIC S. pyogenes, G+ (Streptococcus pyogenes) | MIC [1] | MIC E. faecium VRE 1, G+ [2] | MIC [2] | MIC [3] | MIC (Bacillus cereus) | MIC B. cereus, G+ (anthrax surrogate) (Bacillus cereus) | MIC (M. smegmatis) | Developmental score, 1/100 (C. elegans L1 larvae) | Developmental score, 1/200 (C. elegans L1 larvae) | Developmental score, 1/400 (C. elegans L1 larvae) | Developmental score, 1/800 (C. elegans L1 larvae) | Developmental score, 1/1600 (C. elegans L1 larvae) | Movement score, 1/100 (C. elegans) | Movement score, 1/200 (C. elegans) | Movement score, 1/400 (C. elegans) | Movement score, 1/800 (C. elegans) | Movement score, 1/1600 (C. elegans) | effect on worms at the lowest concentrations tested (C. elegans) | other results |
| --- | --- | --- | --- | --- | --- | --- | --- | --- | --- | --- | --- | --- | --- | --- | --- | --- | --- | --- | --- | --- | --- |
| COc1cc(O)cc(/C=C/Oc2cccc(C)c2)c1 [Compound A9, 3-Methylphenyl-E-(3-hydroxy-5-methoxy)-styryl ether] | 32 µg/mL (≈ 125 µM) | 32 µg/mL (≈ 125 µM) | 16 µg/mL (≈ 62.4 µM) | 32 µg/mL (≈ 125 µM) | 32 µg/mL (≈ 125 µM) | 32 µg/mL (≈ 125 µM) | 32 µg/mL (≈ 125 µM) | 16 µg/mL (≈ 62.4 µM) | 64 µg/mL (≈ 250 µM) | +++ | +++ | +++ | − | − | +++ | +++ | ++ | ++ | + | reduced motility, paralysis, or death |  |
| COc1ccc(O/C=C/c2cc(O)cc(OC)c2)cc1 [Compound A6, 4-Methoxyphenyl-E-(3-hydroxy-5methoxy)-styryl ether] | 32 µg/mL (≈ 118 µM) | 32 µg/mL (≈ 118 µM) | 32 µg/mL (≈ 118 µM) | 64 µg/mL (≈ 235 µM) | 64 µg/mL (≈ 235 µM) | 64 µg/mL (≈ 235 µM) | 64 µg/mL (≈ 235 µM) | 64 µg/mL (≈ 235 µM) | 128 µg/mL (≈ 470 µM) | +++ | +++ | + | − | − | +++ | +++ | ++ | + | − |  |  |
| COc1cc(O)cc(/C=C/c2ccsc2)c1 [CL-5, (E)-3-[2-(3-Hydroxy-5-methoxy)-vinyl]thiophene] | 4 µg/mL (≈ 17.2 µM) | 4 µg/mL (≈ 17.2 µM) | 16 µg/mL (≈ 68.9 µM) | 32 µg/mL (≈ 138 µM) | 32 µg/mL (≈ 138 µM) | 32 µg/mL (≈ 138 µM) | 32 µg/mL (≈ 138 µM) | 32 µg/mL (≈ 138 µM) | 128 µg/mL (≈ 551 µM) | +++ | +++ | +++ | +++ | + | +++ | +++ | +++ | +++ | ++ | reduced motility, paralysis, or death | effect at the two highest dilutions (C. elegans L1 larvae): death or delays in development; effect on worms at the lowest concentration tested (most active) (C. elegans; lowest concentration tested): severe distress |
| N#Cc1cccc(/C=C/SC2=NCCS2)c1 [SK-04-72] |  |  |  |  |  |  |  |  |  |  |  |  |  |  |  |  |  |  |  |  | MIC S. aureus ATCC 29213 ([1]; Table 6): >512 µg/mL; MIC M. chelonae (Mycobacterium chelonae): 64 µg/mL (≈ 260 µM); MIC S. aureus MC-1 ([3]; Table 6): >512 µg/mL; MIC M. avium (Mycobacterium avium): 64 µg/mL (≈ 260 µM); MIC M. smegmatis (M. smegmatis; Table 6): 64 µg/mL (≈ 260 µM); MIC M. intracellulare [4]: 64 µg/mL (≈ 260 µM); MIC M. fortuitum (Mycobacterium fortuitum): 64 µg/mL (≈ 260 µM) |
| COc1cc(O)cc(/C=C/c2cccs2)c1 [CL-6, (E)-2-[2-(3-Hydroxy-5-methoxy)-vinyl]thiophene] | 32 µg/mL (≈ 138 µM) | 32 µg/mL (≈ 138 µM) | 32 µg/mL (≈ 138 µM) | 64 µg/mL (≈ 276 µM) | 64 µg/mL (≈ 276 µM) | 32 µg/mL (≈ 138 µM) | 32 µg/mL (≈ 138 µM) | 32 µg/mL (≈ 138 µM) | 64 µg/mL (≈ 276 µM) |  |  |  |  |  | +++ | +++ | +++ | − | − |  |  |
| COc1cc(O)cc(/C=C/Oc2cccc(OC)c2)c1 [Compound A8, 3-Methoxyphenyl-E-(3-hydroxy-5-methoxy)-styryl ether] | 16 µg/mL (≈ 58.8 µM) | 16 µg/mL (≈ 58.8 µM) | 32 µg/mL (≈ 118 µM) | 64 µg/mL (≈ 235 µM) | 64 µg/mL (≈ 235 µM) | 64 µg/mL (≈ 235 µM) | 64 µg/mL (≈ 235 µM) | 64 µg/mL (≈ 235 µM) | 128 µg/mL (≈ 470 µM) | +++ | +++ | − | − | − | +++ | ++ | ++ | + | + |  |  |
| COc1cc(O)cc(/C=C/Sc2ccccc2)c1 [CL-4, Phenyl-E-(3-hydroxy-5methoxy)-styryl thioether] | 8 µg/mL (≈ 31 µM) | 8 µg/mL (≈ 31 µM) | 16 µg/mL (≈ 61.9 µM) | 32 µg/mL (≈ 124 µM) | 32 µg/mL (≈ 124 µM) | 32 µg/mL (≈ 124 µM) | 16 µg/mL (≈ 61.9 µM) | 16 µg/mL (≈ 61.9 µM) | 128 µg/mL (≈ 495 µM) | +++ | +++ | +++ | − | − | +++ | +++ | ++ | + | − |  |  |
| COc1cc(O)cc(/C=C/Oc2ccc(C)cc2)c1 [Compound A10, 4-Methylphenyl-E-(3-hydroxy-5-methoxy)-styryl ether] | 32 µg/mL (≈ 125 µM) | 32 µg/mL (≈ 125 µM) | 16 µg/mL (≈ 62.4 µM) | 32 µg/mL (≈ 125 µM) | 32 µg/mL (≈ 125 µM) | 32 µg/mL (≈ 125 µM) | 64 µg/mL (≈ 250 µM) | 64 µg/mL (≈ 250 µM) | > 128 µg/mL | +++ | +++ | ++ | − | − | +++ | +++ | +++ | ++ | + | reduced motility, paralysis, or death |  |
